Assay results published in patent US20240424132A1, “ATHEROSCLEROSIS-TARGETED LIPOSOME NANOCARRIER DELIVERY SYSTEM AND PREPARATION METHOD THEREFOR” (Beijing Inno Medicine Co., Ltd., priority 2021, published 2024).

System: arterial plaques
Assay: In vivo therapeutic effect on arterial plaques (carotid MRI, percentage of plaque volume progression)
Set-up: species or system ApoE−/− mice
Settings: 0.66 mg rosuvastatin per kg, once every other day, 4 weeks
Description: (1) A normal saline solution of free rosuvastatin was prepared, and a nanodelivery system loaded with the therapeutic agent was prepared by the method described in the above Example 2. SPF-grade ApoE−/− mice (42 mice, 5-6 weeks old, weight 20±1 g) were taken as assay animals. The mice were fed an adaptive high-fat diet (fat 10% (w/w), cholesterol 2% (w/w), sodium cholate 0.5% (w/w), and the rest being normal feed for mice) for 4 weeks, and then anaesthetized via intraperitoneal injection of 1% sodium pentobarbital (prepared by adding […] of sodium pentobarbital to 100 ml of normal saline) at a dose of 40 mg/kg. Then, the mice were fixed on the surgical plate in the supine position, and disinfected around the neck with 75% (v/v) alcohol. The neck skin was cut longitudinally, and the anterior cervical gland was bluntly separated, and the beating left common carotid artery can be observed on the left side of the trachea. The common carotid artery was carefully separated to the bifurcation. A silicone cannula with a length of 2.5 mm and an inner size of 0.3 mm was placed on the outer periphery of the left common carotid artery. […] For animals in each group, carotid MRI scans were performed before and after treatment weekly to detect plaque and lumen area, and the percentage of plaque volume progression was calculated based on the scanned thickness. […]

CC(C)c1nc(N(C)S(C)(=O)=O)nc(-c2ccc(F)cc2)c1/C=C/[C@@H](O)C[C@@H](O)CC(=O)O [free rosuvastatin, rosuvastatin]
therapeutic effect on plaques, intravenous administration (intravenous): cannot exhibit the therapeutic effect of reversing plaques
therapeutic effect on plaques, oral administration (oral): cannot exhibit the therapeutic effect of reversing plaques
